{
  "source": "patent US20260356869A1",
  "about": "“TRANSITION METAL COMPLEXES FOR MRI APPLICATIONS AND METHODS OF USE” (Yale University, priority 2022, published 2026)",
  "key": {"[1]": {"assay": "BIRDS characterization: pH and temperature sensitivity of non-exchangeable (and -NH) proton chemical shifts by 1H NMR", "assay_type": "physicochemical", "conditions": "for T sensitivity, -NH proton: -NH proton (exchangeable), 298 K to 318 K", "protocol": "(§1) The synthesized complexes are characterized for water proton relaxivities with different concentrations of complexes, as well as their proton sensing (with BIRDS and CEST) and sodium sensing (with ^23Na-MRSI) properties on a Bruker AVANCE III HD 500 vertical-bore spectrometer (Bruker, Billerica, MA, USA) interfaced with Bruker TopSpin v3.2 software.\nThe chemical shifts of proton resonances are measured relative to the water resonance (4.7 ppm). Temperature and pH sensitive non-exchangeable proton resonances in each complex are chosen for BIRDS detection. The temperature and pH dependences of proton chemical shifts are fitted to second-order polynomial equations:\nδ=a+b pH+cT+dpH^2+eT^2+f pHT Eq. 1\nWhere, the coefficients a-f are obtained from the fit. The relaxation times (T1 and T2) of these resonances are measured at 35 °C using typical inversion-recovery and spin-echo methods, respectively."}, "[2]": {"assay": "23Na-NMR sodium sensing (shiftability and broadening)", "assay_type": "physicochemical", "conditions": "150 mM NaCl; for Shiftability (Sc): negative = downfield, positive = upfield from unshifted sodium signal", "source_text": "as §1\nSodium-23 (^23Na), which has 100% natural abundance, is also visible by magnetic resonance (I=3/2) and provides the second-strongest signal among biological ions after proton. […] Sodium (Na^+) concentration is normally low intracellularly (~10 mM) and high in blood and extracellular spaces (~150 mM), producing a strong transmembrane Nat gradient (ΔNa^+mem≈140 mM) and a weak transendothelial Na^+ gradient (ΔNa^+end≈0 mM). Distributions of sodium ion (Na^+) across biological membranes are tightly regulated, and thus variations of Nat across compartments often imply pathological states.\nIn vitro experiments are performed using concentric NMR tubes (spherical and cylindrical; Wilmad-LabGlass, Vineland, NJ, USA). One compartment (inner) contained 150 mM NaCl and the other (outer) contained the same but with varying amounts of transition metal complexes and 10% v/v ^2H2O to lock the spectrometer frequency using the ^2H2O signal. Each solution is pH-adjusted using HCl or KOH to give five different pH values. ^23Na-NMR spectra are collected on the same Bruker system as for ^1H NMR. […] Spectra are analyzed applying 10 Hz line broadening and manual zeroth- and first-order phasing. The chemical shift and line width of the shifted peak are measured using the “peakw” function on TopSpin."}, "[3]": {"conditions": "reported value, cited from earlier work; for Shiftability (Sc): negative = downfield, positive = upfield from unshifted sodium signal"}, "[4]": {"conditions": "literature value, cited from earlier work"}, "[5]": {"conditions": "10 mM, pH 6.2-8.0, 298 K to 318 K, 11.7 T"}, "[6]": {"conditions": "proton B, 10 mM, pH 6.2-8.0, 298 K to 318 K, 11.7 T"}, "[7]": {"conditions": "proton A (@56), comparator thulium complex"}, "[8]": {"conditions": "proton B (@23), comparator thulium complex"}, "[9]": {"conditions": "proton C (@-20), comparator thulium complex"}},
  "note": "Read-outs that look alike come from different tables or passages of the source.",
  "data": [
    {"smiles": "O=P(O)(O)CN1CCN(CP(=O)(O)O)CCN(CP(=O)(O)O)CCN(CP(=O)(O)O)CC1.[Co+2]", "note": "[CODOTP^6-]", "values": [
      {"measurement": "T sensitivity, non-exchangeable proton A", "setting": "[1]; [5]", "result": 0.434, "unit": "ppm/° C."},
      {"measurement": "pH sensitivity, non-exchangeable proton A", "setting": "[1]; [5]", "result": 6.0, "unit": "ppm/pH unit"},
      {"measurement": "T sensitivity, non-exchangeable proton B", "setting": "[1]; [6]", "result": 0.234, "unit": "ppm/° C."},
      {"measurement": "pH sensitivity, non-exchangeable proton B", "setting": "[1]; [6]", "result": 1.42, "unit": "ppm/pH unit"},
      {"measurement": "T sensitivity, non-exchangeable proton C", "setting": "[1]; [5]", "result": 0.186, "unit": "ppm/° C."},
      {"measurement": "Broadening (βc)", "setting": "[2]", "result": 0.016, "unit": "ppm/mM"},
      {"measurement": "Shiftability (Sc)", "setting": "[2]", "result": -0.207, "unit": "ppm/mM"}
    ]},
    {"smiles": "O=P(O)(O)CN1CCN(CP(=O)(O)O)CCN(CP(=O)(O)O)CC1.[Co+2]", "note": "[CONOTP^4-]", "values": [
      {"measurement": "T sensitivity, non-exchangeable proton A", "setting": "[1]; [5]", "result": 0.948, "unit": "ppm/° C."},
      {"measurement": "pH sensitivity, non-exchangeable proton A", "setting": "[1]; [5]", "result": 6.20, "unit": "ppm/pH unit"},
      {"measurement": "Broadening (βc)", "setting": "[2]", "result": 0.013, "unit": "ppm/mM"},
      {"measurement": "Shiftability (Sc)", "setting": "[2]", "result": "+0.140 ppm/mM"}
    ]},
    {"smiles": "O=C(CN1CCN(CC(=O)NCP(=O)(O)O)CCN(CC(=O)NCP(=O)(O)O)CCN(CC(=O)NCP(=O)(O)O)CC1)NCP(=O)(O)O.[Co+2]", "note": "[CoDOTA-4AMP^6-]", "values": [
      {"measurement": "T sensitivity, -NH proton", "setting": "[1]; 11.7 T", "result": 0.161, "unit": "ppm/° C."},
      {"measurement": "T sensitivity, non-exchangeable proton A", "setting": "[1]; [5]", "result": 0.576, "unit": "ppm/° C."},
      {"measurement": "Broadening (βc)", "setting": "[2]", "result": 0.022, "unit": "ppm/mM"},
      {"measurement": "Shiftability (Sc)", "setting": "[2]", "result": -0.172, "unit": "ppm/mM"}
    ]},
    {"smiles": "O=C(CN1CCN(CC(=O)NCP(=O)(O)O)CCN(CC(=O)NCP(=O)(O)O)CCN(CC(=O)NCP(=O)(O)O)CC1)NCP(=O)(O)O.[Fe+2]", "note": "[FeDOTA-4AMP^6-]", "values": [
      {"measurement": "T sensitivity, -NH proton", "setting": "[1]; 11.7 T", "result": 0.158, "unit": "ppm/° C."},
      {"measurement": "T sensitivity, non-exchangeable proton A", "setting": "[1]; [5]", "result": 0.413, "unit": "ppm/° C."},
      {"measurement": "T sensitivity, non-exchangeable proton E", "setting": "[1]; proton E, 10 mM, pH 6.2-8.0, 298 K to 318 K, 11.7 T", "result": -0.306, "unit": "ppm/° C."},
      {"measurement": "Broadening (βc)", "setting": "[2]", "result": 0.020, "unit": "ppm/mM"},
      {"measurement": "Shiftability (Sc)", "setting": "[2]", "result": -0.477, "unit": "ppm/mM"}
    ]},
    {"smiles": "O=P(O)(O)CN1CCN(CP(=O)(O)O)CCN(CP(=O)(O)O)CCN(CP(=O)(O)O)CC1.[Fe+2]", "note": "[FeDOTP^6-]", "values": [
      {"measurement": "T sensitivity, non-exchangeable proton A", "setting": "[1]; [5]", "result": 0.345, "unit": "ppm/° C."},
      {"measurement": "T sensitivity, non-exchangeable proton B", "setting": "[1]; [6]", "result": 0.130, "unit": "ppm/° C."},
      {"measurement": "T sensitivity, non-exchangeable proton C", "setting": "[1]; [5]", "result": 0.045, "unit": "ppm/° C."},
      {"measurement": "Broadening (βc)", "setting": "[2]", "result": 0.023, "unit": "ppm/mM"},
      {"measurement": "Shiftability (Sc)", "setting": "[2]", "result": "+0.688 ppm/mM"}
    ]},
    {"smiles": "O=P(O)(O)CN1CCN(CP(=O)(O)O)CCN(CP(=O)(O)O)CC1.[Fe+2]", "note": "[FeNOTP^4-]", "values": [
      {"measurement": "T sensitivity, non-exchangeable proton A", "setting": "[1]; [5]", "result": 0.240, "unit": "ppm/° C."},
      {"measurement": "T sensitivity, non-exchangeable proton B", "setting": "[1]; [6]", "result": 0.149, "unit": "ppm/° C."},
      {"measurement": "Broadening (βc)", "setting": "[2]", "result": 0.015, "unit": "ppm/mM"},
      {"measurement": "Shiftability (Sc)", "setting": "[2]", "result": "+0.318 ppm/mM"}
    ]},
    {"smiles": "O=P(O)(O)CN1CCN(CP(=O)(O)O)CCN(CP(=O)(O)O)CCN(CP(=O)(O)O)CC1.[Gd+3]", "note": "[GdDOTP^5-]", "values": [
      {"measurement": "Broadening (βc)", "setting": "[3]", "result": 0.036, "unit": "ppm/mM"},
      {"measurement": "Shiftability (Sc)", "setting": "[3]", "result": -0.040, "unit": "ppm/mM"}
    ]},
    {"smiles": "O=P(O)(O)CN1CCN(CP(=O)(O)O)CCN(CP(=O)(O)O)CC1.[Gd+3]", "note": "[GdNOTP^3-]", "values": [
      {"measurement": "Broadening (βc)", "setting": "[3]", "result": 0.0117, "unit": "ppm/mM"},
      {"measurement": "Shiftability (Sc)", "setting": "[3]", "result": -0.0435, "unit": "ppm/mM"}
    ]},
    {"smiles": "O=C(CN1CCN(CC(=O)NCP(=O)(O)O)CCN(CC(=O)NCP(=O)(O)O)CCN(CC(=O)NCP(=O)(O)O)CC1)NCP(=O)(O)O.[Tm+3]", "note": "[TmDOTA-4AMP^5-]", "values": [
      {"measurement": "T sensitivity, non-exchangeable proton H1", "setting": "[4]; proton H1", "result": 0.54, "unit": "ppm/° C."},
      {"measurement": "pH sensitivity, non-exchangeable proton H1", "setting": "[4]; proton H1", "result": 1.8, "unit": "ppm/pH unit"},
      {"measurement": "T sensitivity, non-exchangeable proton H2", "setting": "[4]", "result": -0.24, "unit": "ppm/° C."},
      {"measurement": "pH sensitivity, non-exchangeable proton H2", "setting": "[4]", "result": -0.63, "unit": "ppm/pH unit"},
      {"measurement": "T sensitivity, non-exchangeable proton H3", "setting": "[4]", "result": -0.188, "unit": "ppm/° C."},
      {"measurement": "pH sensitivity, non-exchangeable proton H3", "setting": "[4]", "result": -0.25, "unit": "ppm/pH unit"},
      {"measurement": "T sensitivity, non-exchangeable proton H4", "setting": "[4]; proton H4", "result": -1.49, "unit": "ppm/° C."},
      {"measurement": "pH sensitivity, non-exchangeable proton H4", "setting": "[4]; proton H4", "result": -3.9, "unit": "ppm/pH unit"},
      {"measurement": "T sensitivity, non-exchangeable proton H6", "setting": "[4]", "result": 0.45, "unit": "ppm/° C."},
      {"measurement": "pH sensitivity, non-exchangeable proton H6", "setting": "[4]", "result": 1.2, "unit": "ppm/pH unit"},
      {"measurement": "T sensitivity, non-exchangeable proton H8", "setting": "[4]; proton H8", "result": 0.170, "unit": "ppm/° C."},
      {"measurement": "pH sensitivity, non-exchangeable proton H8", "setting": "[4]; proton H8", "result": -4.0, "unit": "ppm/pH unit"}
    ]},
    {"smiles": "O=P(O)(O)CN1CCN(CP(=O)(O)O)CCN(CP(=O)(O)O)CCN(CP(=O)(O)O)CC1.[Tm+3]", "note": "[TmDOTP^5-]", "values": [
      {"measurement": "T sensitivity, non-exchangeable proton H2", "setting": "[4]", "result": -0.6, "unit": "ppm/° C."},
      {"measurement": "pH sensitivity, non-exchangeable proton H2", "setting": "[4]", "result": 4.2, "unit": "ppm/pH unit"},
      {"measurement": "T sensitivity, non-exchangeable proton H3", "setting": "[4]", "result": -0.5, "unit": "ppm/° C."},
      {"measurement": "pH sensitivity, non-exchangeable proton H3", "setting": "[4]", "result": 3.6, "unit": "ppm/pH unit"},
      {"measurement": "T sensitivity, non-exchangeable proton H6", "setting": "[4]", "result": 1.1, "unit": "ppm/° C."},
      {"measurement": "pH sensitivity, non-exchangeable proton H6", "setting": "[4]", "result": -3.9, "unit": "ppm/pH unit"},
      {"measurement": "Broadening (βc)", "setting": "[3]", "result": 0.042, "unit": "ppm/mM"},
      {"measurement": "Shiftability (Sc)", "setting": "[3]", "result": -2.03, "unit": "ppm/mM"}
    ]},
    {"smiles": "O=P(O)(O)CN1CCN(CP(=O)(O)O)CCN(CP(=O)(O)O)CC1.[Tm+3]", "note": "[TmNOTP^3-]", "values": [
      {"measurement": "T sensitivity, non-exchangeable proton A (@56)", "setting": "[1]; [7]", "result": 0.351, "unit": "ppm/° C."},
      {"measurement": "pH sensitivity, non-exchangeable proton A (@56)", "setting": "[1]; [7]", "result": -2.58, "unit": "ppm/pH unit"},
      {"measurement": "T sensitivity, non-exchangeable proton B (@23)", "setting": "[1]; [8]", "result": 0.140, "unit": "ppm/° C."},
      {"measurement": "pH sensitivity, non-exchangeable proton B (@23)", "setting": "[1]; [8]", "result": -0.56, "unit": "ppm/pH unit"},
      {"measurement": "T sensitivity, non-exchangeable proton C (@-20)", "setting": "[1]; [9]", "result": -0.250, "unit": "ppm/° C."},
      {"measurement": "pH sensitivity, non-exchangeable proton C (@-20)", "setting": "[1]; [9]", "result": 1.88, "unit": "ppm/pH unit"},
      {"measurement": "Broadening (βc)", "setting": "[3]", "result": 0.018, "unit": "ppm/mM"},
      {"measurement": "Shiftability (Sc)", "setting": "[3]", "result": -0.568, "unit": "ppm/mM"}
    ]}
  ]
}
